Laboratory results reported in US9648880B2, “Antifungal agents and uses thereof” (University of Massachusetts, priority 2012, dated 2017).
Entries after “also recorded” stand apart in the source; their conditions may differ.

Legend:
C. albicans SC5314 cells = test: pretreatment of C. albicans cells, then adhesion assay; type: cell-based, Candida albicans; details: 25 μM; alamarBlue or GFP detection
Experimental: FIGS. 11A-11D. Compound #4 can coat surfaces and reduce subsequent fungal adhesion. […] is a graph showing the results of pretreatment of polystyrene with candidate compounds. Indicated compounds at 50 μM were incubated in polystyrene 96-well plates overnight. Wells were washed three times with 100 μl of PBS. C. albicans adhesion was then measured using the vital dye alamarBlue, with no additional drug treatment. FIG. 11B is a graph showing titration of compounds #1, 4 and 9 for pre-binding to polystyrene. Indicated concentrations of compounds were pre-incubated with polystyrene plates as above prior to the adhesion assays. FIG. 11C is a graph showing the inhibition of adhesion by pretreatment of C. albicans SC5314 cells with compound #4 prior to introduction to plastic. SC5314 cells were treated with 25 μM compound #4 or DMSO in liquid culture prior to their introduced into polystyrene plates. Cells were washed with PBS prior to resuspension into SCM and seeding into 96-well plates for adhesion assays using alamarBlue detection of remaining cells. […] FIG. 11D is a graph showing the results of an assay performed as in FIG. 11C, except that SC5314-GFP cells were used, and then detected via fluorescence measurement. edt1 indicates non-adherent mutant cells, PBS indicates background fluorescence in absence of cells. […]

C. albicans SC5314-GFP = test: GFP-based adhesion assay; type: cell-based; details: Candida albicans, SC5314, read-out: IC50 in the GFP-based adhesion assay
Experimental: To do this, we measured adhesion of cells plated and washed as before, but here using a C. albicans strain encoding GFP. This allowed us to measure adhesion both in a fluorescence plate reader and by microscopy (FIGS. 1D and 1E). Indeed, these GFP-based assays confirmed that all the compounds effective at 25 μM in the alamarBlue-based assay impair C. albicans adhesion to polystyrene. We conclude that our chemical screen detected multiple compounds that block adhesion to polystyrene, and that these can be assayed via multiple detection methods.
SC5314-GFP and edt1^−/−-GFP strains were pregrown overnight in SC+0.2% glucose media at 30° C., diluted into fresh SC+0.2% glucose media to a final concentration of 5×10^6 cells/ml (equivalent to 0.5 OD600/ml) and plated onto Immulon 2HB 96-well plates, with each well receiving 0.1 OD of cells. DMSO or compounds resuspended in DMSO were added to the desired final concentration (1% vol/vol of DMSO was maintained). Plates were then incubated for 4 hours at 37° C. […] Fluorescence was measured using a Synergy HT plate reader (BioTek) following addition of […] of PBS/well. For each experiment, untagged SC5314 was analyzed simultaneously to determine background fluorescence that was subtracted from the signal from each well.

[1] = system: C. elegans infected with C. albicans; test: C. elegans pathogenesis assay; type: in vivo, Caenorhabditis elegans; details: 12.5 μM
Experimental: We therefore tested whether compound #4 can alter fungal infections in two in vivo settings. First, we performed pathogenesis assays in which nematodes (Caenorhabditis elegans) are infected with C. albicans, resulting in killing of the nematode host (Jain, 2009; Okoli, 2009). We used this assay to test whether compound #4 might have a protective effect, exposing C. elegans to Candida albicans and either DMSO vehicle, the commonly used antifungal drug fluconazole at 12.5 μM, or compound #4 at the same concentration. […] Therefore, consistent with its in vitro activities, compound #4 functions as an antifungal agent in this model infection system.
Three worms in the L3/L4 stage were transferred to each of two NGM agar plates containing E. coli OP50 and grown at 20° C. for four days. On the day of the experiment, worms were washed off the plates with M9 buffer and centrifuged at 900×g for 2 min. The supernatant was removed, and the worms were then resuspended in a bleach solution (1:4 dilution of commercial bleach (5.25%) diluted in 0.25 M sodium hydroxide). The worm suspension was mixed gently by inversion for 3 min, and centrifuged for 2 min at 2,000×g. The pellet containing the eggs was washed with M9 buffer and centrifuged at 2,000×g for 2 min and then resuspended in 500 μl M9 buffer. […]

Cryptococcus gatti = test: Cryptococcus proliferation; type: cell-based; details: 50 μM and 100 μM; 37° C., 18 hours
Experimental: FIGS. 27A and 27B. Compound #4 inhibits proliferation of Cryptococcus gatti.
Compound #4 was also tested for its inhibitory effect on the growth of Cryptococcus gatti. Cryptococcus cells were incubated at 37° C. in unsupplemented RPMI tissue culture media (+Glutamine−Phenol Red (Gibco #11835, Life Technologies, Grand Island, N.Y.; “RPMI”) or RPMI tissue culture media supplemented with 100 U/ml Penicillin/100 ug/ml Streptomycin (Gibco 100× Pen/Strep #151500-122), 1 mM NaPyruvate, and 10 mM HEPES pH 7.0 (“Af medium”) in the presence of 1% DMSO (control), 50 μM compound #4, or 100 μM compound #4, and cell numbers were counted after 18 hours. The assay was also performed with an untreated control.

Cc1ccc(C(=O)N2CCN(c3ccc([N+](=O)[O-])cc3)CC2)cc1Cl [Compound 4]
adhesion of pre-treated cells (C. albicans SC5314 cells): could reduce adhesion of pre-treated cells
IC50 (C. albicans SC5314-GFP): ~3000 nM
lifespan of infected worms [1]: significantly increased survival; also recorded: increased the lifespan of the infected worms
proliferation (cell numbers) (Cryptococcus gatti): inhibited proliferation of Cryptococcus gatti at both concentrations tested
